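These data come from cells grown in 96-well plates and exposed to compound for 48 hours at five concentrations. Definition used: TGI = concentration required for complete inhibition of growth.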
Tests used:
Assay in all cases: growth of human tumour cells (NCI), 48 h
[1] = test system: U251 CNS
[2] = test system: SR leukemia
[3] = test system: RXF 393 renal
[4] = test system: KM12 colon
[5] = test system: SF-539 CNS
[6] = test system: SW-620 colon
[7] = test system: UO-31 renal
[8] = test system: MALME-3M melanoma
[9] = test system: MOLT-4 leukemia
[10] = test system: UACC-62 melanoma
[11] = test system: BT-549 breast
[12] = test system: OVCAR-5 ovarian
[13] = test system: SF-268 CNS
[14] = test system: SK-MEL-28 melanoma
[15] = test system: IGROV1 ovarian
[16] = test system: HT29 colon
[17] = test system: SK-OV-3 ovarian
[18] = test system: HCT-15 colon
[19] = test system: PC-3 prostate
[20] = test system: A549 NSCLC
[21] = test system: LOX IMVI melanoma
[22] = test system: HOP-62 NSCLC
[23] = test system: NCI-H23 lung
[24] = test system: ACHN renal
[25] = test system: MDA-MB-231 breast
[26] = test system: MDA-N
[27] = test system: OVCAR-4 ovarian
[28] = test system: RPMI-8226 leukemia
[29] = test system: SK-MEL-5 melanoma
[30] = test system: NCI/ADR-RES ovarian
[31] = test system: HS 578T breast
[32] = test system: HL-60(TB) leukemia
[33] = test system: HOP-92 NSCLC
[34] = test system: SF-295 CNS
[35] = test system: OVCAR-3 ovarian
[36] = test system: CCRF-CEM leukemia
[37] = test system: T-47D breast
[38] = test system: SNB-75 CNS
[39] = test system: TK-10 renal
[40] = test system: NCI-H522 lung
[41] = test system: NCI-H460 lung
[42] = test system: SNB-19 CNS
[43] = test system: HCC-2998 colon
[44] = test system: HCT-116 colon
[45] = test system: SN12C renal
[46] = test system: MDA-MB-435
[47] = test system: K-562 leukemia
[48] = test system: 786-0 renal
[49] = test system: MCF7 breast
[50] = test system: COLO 205 colon
[51] = test system: A498 renal
[52] = test system: M14 melanoma
[53] = test system: EKVX NSCLC
[54] = test system: UACC-257 melanoma
[55] = test system: DU-145 prostate
[56] = test system: NCI-H226 lung
[57] = test system: OVCAR-8 ovarian
[58] = test system: SK-MEL-2 melanoma
[59] = test system: CAKI-1 renal

## Cc1cccc2c1CC1(Cc3ccccc3C1=O)C2=O (configuration not stated)
[1]
  TGI: > 100 µM
[2]
  TGI: > 100 µM
[3]
  TGI: > 100 µM
[4]
  TGI: > 100 µM
[5]
  TGI: > 100 µM
[6]
  TGI: > 100 µM
[7]
  TGI: > 100 µM
[8]
  TGI: > 100 µM
[9]
  TGI: > 100 µM
[10]
  TGI: > 100 µM
[11]
  TGI: 80.6 µM
[12]
  TGI: > 100 µM
[13]
  TGI: > 100 µM
[14]
  TGI: > 100 µM
[15]
  TGI: > 100 µM
[16]
  TGI: > 100 µM
[17]
  TGI: 99.6 µM
[18]
  TGI: > 100 µM
[19]
  TGI: > 100 µM
[20]
  TGI: > 100 µM
[21]
  TGI: > 100 µM
[22]
  TGI: > 100 µM
[23]
  TGI: > 100 µM
[24]
  TGI: > 100 µM
[25]
  TGI: > 100 µM
[26]
  TGI: > 100 µM
[27]
  TGI: > 100 µM
[28]
  TGI: > 100 µM
[29]
  TGI: > 100 µM
[30]
  TGI: > 100 µM
[31]
  TGI: > 100 µM
[32]
  TGI: > 100 µM
[33]
  TGI: > 100 µM
[34]
  TGI: > 100 µM
[35]
  TGI: > 100 µM
[36]
  TGI: > 100 µM
[37]
  TGI: > 100 µM
[38]
  TGI: > 100 µM
[39]
  TGI: > 100 µM
[40]
  TGI: > 100 µM
[41]
  TGI: > 100 µM
[42]
  TGI: > 100 µM
[43]
  TGI: > 100 µM
[44]
  TGI: > 100 µM
[45]
  TGI: > 100 µM
[46]
  TGI: > 100 µM
[47]
  TGI: > 100 µM
[48]
  TGI: > 100 µM
[49]
  TGI: > 100 µM
[50]
  TGI: > 100 µM
[51]
  TGI: > 100 µM
[52]
  TGI: > 100 µM
[53]
  TGI: > 100 µM
[54]
  TGI: > 100 µM
[55]
  TGI: > 100 µM
[56]
  TGI: > 100 µM
[57]
  TGI: > 100 µM

## CN(C)C(=S)/N=C1\SC(=Nc2ccccc2)C(=Nc2ccccc2)N1c1ccc([N+](=O)[O-])cc1
[1]
  TGI: > 100 µM
[2]
  TGI: > 100 µM
[3]
  TGI: > 100 µM
[4]
  TGI: > 100 µM
[7]
  TGI: > 100 µM
[8]
  TGI: > 100 µM
[9]
  TGI: > 100 µM
[10]
  TGI: > 100 µM
[11]
  TGI: > 100 µM
[12]
  TGI: > 100 µM
[14]
  TGI: > 100 µM
[15]
  TGI: > 100 µM
[16]
  TGI: > 100 µM
[17]
  TGI: > 100 µM
[18]
  TGI: > 100 µM
[19]
  TGI: > 100 µM
[22]
  TGI: > 100 µM
[23]
  TGI: > 100 µM
[25]
  TGI: > 100 µM
[26]
  TGI: > 100 µM
[28]
  TGI: > 100 µM
[29]
  TGI: > 100 µM
[30]
  TGI: > 100 µM
[31]
  TGI: > 100 µM
[32]
  TGI: > 100 µM
[33]
  TGI: > 100 µM
[34]
  TGI: > 100 µM
[35]
  TGI: > 100 µM
[36]
  TGI: > 100 µM
[37]
  TGI: > 100 µM
[38]
  TGI: > 100 µM
[40]
  TGI: > 100 µM
[41]
  TGI: > 100 µM
[42]
  TGI: > 100 µM
[43]
  TGI: > 100 µM
[44]
  TGI: > 100 µM
[45]
  TGI: > 100 µM
[46]
  TGI: > 100 µM
[47]
  TGI: > 100 µM
[58]
  TGI: > 100 µM
[49]
  TGI: > 100 µM
[50]
  TGI: > 100 µM
[51]
  TGI: > 100 µM
[52]
  TGI: > 100 µM
[55]
  TGI: > 100 µM
[56]
  TGI: > 100 µM
[57]
  TGI: > 100 µM
[59]
  TGI: > 100 µM

## CCn1c2ccccc2c2nnc(NCCCO)nc21
[1]
  TGI: > 100 µM
[2]
  TGI: > 100 µM
[3]
  TGI: > 100 µM
[4]
  TGI: > 100 µM
[5]
  TGI: > 100 µM
[6]
  TGI: > 100 µM
[8]
  TGI: > 100 µM
[9]
  TGI: > 100 µM
[10]
  TGI: > 100 µM
[11]
  TGI: > 100 µM
[12]
  TGI: > 100 µM
[13]
  TGI: > 100 µM
[14]
  TGI: > 100 µM
[15]
  TGI: > 100 µM
[16]
  TGI: > 100 µM
[17]
  TGI: > 100 µM
[18]
  TGI: > 100 µM
[19]
  TGI: > 100 µM
[20]
  TGI: > 100 µM
[21]
  TGI: > 100 µM
[22]
  TGI: > 100 µM
[23]
  TGI: > 100 µM
[24]
  TGI: > 100 µM
[25]
  TGI: > 100 µM
[26]
  TGI: > 100 µM
[27]
  TGI: > 100 µM
[28]
  TGI: > 100 µM
[29]
  TGI: > 100 µM
[30]
  TGI: > 100 µM
[31]
  TGI: > 100 µM
[32]
  TGI: > 100 µM
[33]
  TGI: > 100 µM
[34]
  TGI: > 100 µM
[35]
  TGI: > 100 µM
[36]
  TGI: > 100 µM
[37]
  TGI: > 100 µM
[38]
  TGI: > 100 µM
[39]
  TGI: > 100 µM
[40]
  TGI: > 100 µM
[41]
  TGI: > 100 µM
[42]
  TGI: > 100 µM
[44]
  TGI: > 100 µM
[45]
  TGI: > 100 µM
[46]
  TGI: > 100 µM
[47]
  TGI: > 100 µM
[48]
  TGI: > 100 µM
[58]
  TGI: > 100 µM
[49]
  TGI: > 100 µM
[50]
  TGI: > 100 µM
[51]
  TGI: > 100 µM
[52]
  TGI: > 100 µM
[53]
  TGI: > 100 µM
[54]
  TGI: > 100 µM
[55]
  TGI: > 100 µM
[56]
  TGI: > 100 µM
[57]
  TGI: > 100 µM
[59]
  TGI: > 100 µM

From PubChem BioAssay (NCI)
